In patent US20240117303A1, “METHODS AND COMPOSITIONS FOR GENERATING HUMAN MIDBRAIN DOPAMINERGIC NEURONS FROM NEURAL PROGENITOR CELLS” (Trailhead Biosystems Inc., priority 2022, published 2024):
“Also recorded” adds a separate entry of the source.

How the values were obtained:
Type in all cases: cell-based, human
stage 3 immature neurons = experiment: HD-DoE 8-factor experiment for stage 4 recipe (FIG. 27, 28, 31)
How it was run: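 Stage 3 cells treated 4 days with combinatorial matrices including CHIR99021, BDNF, GDNF, Rosiglitazone, GW7647, DBZ and heparin, then gene expression (NR4A2, PITX3, TH) measured. Dropout tests removed each of six finalized factors singly, comparing NR4A2 and PITX3 against the full set.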

[1] = tested on: stage 2 neural progenitors; experiment: HD-DoE 12-factor model for stage 3 recipe (FIG. 19-23, 29)
[2] = tested on: stage 1 neural stem cells; experiment: HD-DoE 12-factor experiment for stage 2 recipe (first model, FIG. 5-7, 12); conditions: for factor contribution: positive impact
From the text: To further guide the differentiation of midbrain-committed neural stem cells to neural progenitor cells at stage 2, we performed an additional HD-DoE experiment. We thereby obtained additional gene regulatory models that were used for preparation of differentiation protocol. The basis of this was a 12-factor HD-DoE experiment with focus on initiation of differentiation of cells toward midbrain neural progenitor cells for an additional 3 days after termination of stage 1 treatment. Here, we focused on expression of LMX1A and FOXA2 in neural progenitor cells with low to zero expression of GBX2. LMX1A had significant high expression level in the model with value of 47888. Therefore, we used optimization setting for this gene to identify the positive factors. The factors in this experiment included SC79, MK2206, ZM336372, PD0325901, CHIR99021, A 83-01, TTNPB, AGN193109, GW3965, SR9243, Purmorphamine and GSI-XX.
To assess the impact of elimination of each validated factor, we used dynamic profile analysis and compared the expression level of genes of interest in absence of each finalized factor while others are present.
In the stage 2 recipe, each of the six finalized factors were removed while the other five factors were present and the expression levels of FOXA2, LMX1A and GBX2 were assessed, compared to the levels in the presence of all factors. According to the first experiment model, the absence of TTNPB lead to a rise of GBX2 expression, while the value of FOXA2 and LMX1A reduced drastically from 10,000 to 0 and 30,000 to 15,000, respectively. The absence of A 83-01 reduced the expression of FOXA2 from 10,000 to 7000, however, as expected, the value of LMX1A increased from 30,000 to 40,000. […] According to the second experiment model, the absence of BMP7 and MK2206 both reduced the level of FOXA2 while increasing the value of LMX1A, with BMP7 as the main effector that led to 0 expression of FOXA2.

[3] = dynamic profile / model, 12 effectors

In the case of `Cc1c[nH]c(-c2cnc(NCCNc3ccc(C#N)cn3)nc2-c2ccc(Cl)cc2Cl)n1` [CHIR99021], the “impact on expression level of PITX3” value (stage 3 immature neurons; dynamic profile, 8 effectors) is reported as “did not have a meaningful effect”, the factor contribution (stage 3 immature neurons; model maximized for NR4A2, negative impact) is reported as 20.7 and the “impact on expression of KCNJ6” value ([1]; dynamic profile, 12 effectors) is reported as “positive impact”. The factor contribution ([1]; model maximizing expression of CORIN, negative impact) was 10.9, the factor contribution ([1]; model optimized for maximum expression of KCNJ6, positive regulators) was 10.7 and the “expression level of KCNJ6 in absence of the factor” value ([1]; stage 3 recipe, other factors present, 50 with all factors) was 50. For the same compound, the “expression level of SOX6 in absence of the factor” value ([1]; stage 3 recipe, other factors present, 105 with all factors) was 125, the “expression level of MSX1 in absence of the factor” value ([1]; stage 3 recipe, other factors present, 140 with all factors) was 115 and the “expression level of CORIN in absence of the factor” value ([1]; stage 3 recipe, other factors present, 900 with all factors) was 1200. For the same compound, the “impact on expression of FOXA2” value [2, 3] was “reduces”, the “impact on expression of LMX1A” value [2, 3] was “positive effect; also recorded: positive impact” and the “impact on expression level of GBX2” value ([2]; dynamic profile, 12 effectors) was “increases”. For the same compound, the factor contribution ([2]; model optimized for LMX1A) was 8.3 and the factor contribution ([2]; model optimized for maximum expression of FOXA2) was 10.7.
